We go through 108 molecules from PubChem BioAssay AID1648 (Sanford-Burnham Center for Chemical Genomics, 2009).

Active and inactive are the calls of the source. No rule for the calls is given here.

The assay deals with Serine/threonine-protein kinase mTOR (Homo sapiens) (UniProt P42345). Kind of assay: mTOR FRB domain ligand binding – biophysical, NMR (AID 1648). As to conditions: NMR binding to FRB domain, chemical shift.
Serine/threonine-protein kinase mTOR (Homo sapiens), sequence (P42345 2015-2114): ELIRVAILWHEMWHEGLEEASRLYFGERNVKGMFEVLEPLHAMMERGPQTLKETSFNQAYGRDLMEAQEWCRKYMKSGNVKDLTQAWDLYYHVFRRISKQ

The term Kd denotes a measure of binding affinity in units of concentration. On to `CC1=CCc2c(cc3oc(C)cc(=O)c3c2O)OC1`, for which the Kd was > 4 mM (inactive).

Take `Cc1occc(=O)c1O`: the Kd was > 4 mM (inactive).

`Cc1cc(=O)n2[nH]c(COc3ccccc3)nc2n1`: the Kd is > 4 mM (inactive).

Regarding `CC(=O)NC1=C(N(C)C)C(=O)c2ccccc2C1=O`, the Kd was > 4 mM (inactive).

For the molecule `O=c1c(O)c(-c2ccc(O)cc2O)oc2cc(O)cc(O)c12`, the Kd was > 4 mM (inactive).

In the case of `CCn1nnc(NC(=O)c2cc3ccccc3o2)n1`, the Kd is > 4 mM (inactive).

For the molecule `Cc1onc(-c2ccc(F)cc2)c1C(=O)O`, the Kd is > 4 mM (inactive).

For `CC(=O)Nc1ccn(-c2ccccc2)n1`, the Kd is > 4 mM (inactive).

Regarding `NC(=O)c1c(Cl)nsc1-c1ccccc1Cl`, the Kd is > 4 mM (inactive).

`CC12CCCC(O)(C1)C1CC(C)(C)C1CC2` (stereo not drawn): the Kd is > 4 mM (inactive).

Turning to `N#CCCn1c(=O)oc2ccccc21`, the Kd is > 4 mM (inactive).

As for `O=c1ccn([C@@H]2O[C@H](COP(=O)(O)OP(=O)(O)OP(=O)(O)O)[C@@H](O)[C@H]2O)c(=O)[nH]1`, the Kd was > 4 mM (inactive).

With `O=c1[nH]oc2ccccc12`, the Kd was > 4 mM (inactive).

As to `S=C(Cc1cccnc1)N1CCOCC1`, the Kd was > 4 mM (inactive).

`Fc1cccc(Cl)c1CN1CCNCC1`: the Kd is > 4 mM (inactive).

With `O=C(O)c1ccc2[nH]c3c(c2c1)CSCC3`, the Kd was > 4 mM (inactive).

As to `CC(=O)c1ccc(NC(=S)N2CCC(O)CC2)cc1`, the Kd is > 4 mM (inactive).

On to `CC1(C)N=C2C(=[N+]1[O-])CCC/C2=N\O`, for which the Kd was > 4 mM (inactive).

As for `Cc1cc(NC(=O)Cc2cccs2)no1`, the Kd was > 4 mM (inactive).

As to `CN1CCC(N2CCN(C)CC2)CC1`, the Kd is > 4 mM (inactive).

Consider `Cc1nc(-c2ccc(C(=O)N3CCOCC3)cc2)cs1`, for which the Kd was > 4 mM (inactive).

`CCOC12NC(=O)CC(=O)N1C(c1ccccc1)=CS2` (stereo not drawn): the Kd is > 4 mM (inactive).

For `Cc1cc(C)c(-c2cc(C(F)(F)F)no2)c(=O)[nH]1`, the Kd was > 4 mM (inactive).

Regarding `CCOC(=O)c1ccc(F)c(F)c1`, the Kd is > 4 mM (inactive).

Turning to `CN1C(=O)CC(=O)N(C)c2ccccc21`, the Kd was > 4 mM (inactive).

For `CCCC(=O)N1CCSCC1`, the Kd is > 4 mM (inactive).

`CC(=O)NC(NC(C)=O)c1ccccc1`: the Kd is > 4 mM (inactive).

Turning to `CC1Cc2nc(SCC(N)=O)n(C)c(=O)c2S1` (stereo not drawn), the Kd is > 4 mM (inactive).

Turning to `CCCn1cnc2sc(C(N)=O)c(C)c2c1=O`, the Kd was > 4 mM (inactive).

For the molecule `CC(=O)Nc1nc2c(s1)C(=O)NCCC2`, the Kd was > 4 mM (inactive).

With `COc1ccccc1NC(=O)c1ccc(C)s1`, the Kd was > 4 mM (inactive).

Consider `N#CCSc1nc(-c2ccccc2)cs1`, for which the Kd was > 4 mM (inactive).

Regarding `CCNC(=S)NS(=O)(=O)c1ccccc1`, the Kd was > 4 mM (inactive).

`CCC(CO)NC(=O)c1snnc1C` (stereo not drawn): the Kd is > 4 mM (inactive).

On to `Nc1ncnc(NCCCO)c1[N+](=O)[O-]`, for which the Kd is > 4 mM (inactive).

`O=C(O)Cc1n[nH]c(=O)c2ccccc12`: the Kd was > 4 mM (inactive).

For the molecule `COc1ccc2c(c1)OC/C(=C/c1ccc(O)c(O)c1)C2=O`, the Kd was > 4 mM (inactive).

Consider `Cc1ccccc1OCC(=O)O`, for which the Kd was > 4 mM (inactive).

Consider `O=C(O)C1CSC(c2cccnc2)N1` (stereo not drawn), for which the Kd was > 4 mM (inactive).

On to `Cc1ccsc1/C=c1\sc2ncnn2c1=O`, for which the Kd was > 4 mM (inactive).

Turning to `N#Cc1cnn(Cc2ccc(Cl)cc2)c1N`, the Kd is > 4 mM (inactive).

For the molecule `Cn1c(-c2ccccc2F)n[nH]c1=S`, the Kd is > 4 mM (inactive).

`CSc1ncc(C(=O)O)n1Cc1ccccc1`: the Kd was > 4 mM (inactive).

Consider `CC(C)NC(=O)Cc1c(O)c2ccccc2[nH]c1=O`, for which the Kd was > 4 mM (inactive).

Turning to `CN(C)c1ccc(NC(=O)CC(C(=O)O)N(C)C)cc1` (stereo not drawn), the Kd was > 4 mM (inactive).

Regarding `Cc1nc2ccc(C(=O)O)cc2nc1C`, the Kd is > 4 mM (inactive).

In the case of `COc1cc(OC)c2c(c1Cl)OC1(C2=O)C(O)=CC(=O)CC1C` (stereo not drawn), the Kd was > 4 mM (inactive).

Regarding `Cc1nnc2sc(-c3ccco3)nn12`, the Kd is > 4 mM (inactive).

Consider `NCCCCN`, for which the Kd was > 4 mM (inactive).

Regarding `S=C=NCc1ccccc1`, the Kd is > 4 mM (inactive).

As for `CCN1CCC(NC2CCC(O)CC2)CC1` (stereo not drawn), the Kd was > 4 mM (inactive).

As to `O=C(NC1=NCCS1)c1ccc(Cl)s1`, the Kd is > 4 mM (inactive).

With `COc1ccc(CN2CCC(O)CC2)c(O)c1`, the Kd was > 4 mM (inactive).

On to `O=C1CNC(=O)N1c1cccc(Cl)c1`, for which the Kd is > 4 mM (inactive).

As for `O=S1(=O)CCC(NCCO)C1` (stereo not drawn), the Kd was > 4 mM (inactive).

For `CCn1c(C)c(C(C)=O)c(N2CCOCC2)nc1=S`, the Kd was > 4 mM (inactive).

`O=C1CNCc2[nH]c3ccccc3c2N1c1ccccc1`: the Kd was > 4 mM (inactive).

Turning to `FC(F)(F)c1nnc2ccc(N3CCOCC3)nn12`, the Kd is > 4 mM (inactive).

Regarding `CC(=O)O[C@@H]1C=C[C@@]2(C)C(C[C@@H](OC(C)=O)[C@@]3(C)C4=CC(=O)O[C@@H](c5ccoc5)[C@]4(C)CCC23)C1(C)C` (stereo partly drawn), the Kd was > 4 mM (inactive).

On to `COC(=O)Cc1cc(=O)n(-c2ccccc2)[nH]1`, for which the Kd is > 4 mM (inactive).

Turning to `CC(=O)c1c(C)n(O)c2ccc3nonc3c12`, the Kd was > 4 mM (inactive).

In the case of `O=S(=O)(Nc1ccc2c(c1)OCCO2)c1cccs1`, the Kd is > 4 mM (inactive).

In the case of `O=C(Nc1ccon1)c1sc2cc(F)ccc2c1Cl`, the Kd is > 4 mM (inactive).

`NC(=O)C(=O)NCc1ccc(Cl)cc1`: the Kd was > 4 mM (inactive).

With `CCN(CC)C(=O)c1n[nH]c(=O)c2ccccc12`, the Kd was > 4 mM (inactive).

As to `Nc1cccc(OC(F)(F)F)c1`, the Kd was > 4 mM (inactive).

Take `CC(C)=CC(=O)Nc1ccc(S(N)(=O)=O)cc1`: the Kd is > 4 mM (inactive).

Regarding `O=c1c2ccccc2oc2ccc(O)cc12`, the Kd was > 4 mM (inactive).

`COc1nc(C#N)c(N2CCOCC2)o1`: the Kd was > 4 mM (inactive).

Take `O=C1CN(C(=O)CN2CCOCC2)c2ccccc2N1`: the Kd is > 4 mM (inactive).

Take `O=C(Nc1cccc(O)c1)c1ccccc1`: the Kd was > 4 mM (inactive).

As for `O=C1C2CC=CCC2C(=O)N1c1cccc(O)c1` (stereo not drawn), the Kd is > 4 mM (inactive).

Turning to `COc1ccccc1C(=O)Nc1ccccn1`, the Kd is > 4 mM (inactive).

Turning to `CC(=O)NC(=S)Nc1ccccc1C`, the Kd is > 4 mM (inactive).

Take `O=C(c1ccc2c(c1)OCO2)N1CCC2(CC1)OCCO2`: the Kd is > 4 mM (inactive).

For `[O-][n+]1c2ccccc2[n+]([O-])c2cc(O)ccc21`, the Kd was > 4 mM (inactive).

Take `CC(=O)Nc1cccc(NC(=O)c2ccco2)c1`: the Kd is > 4 mM (inactive).

As for `S=C(NC1CC1)NN1CCOCC1`, the Kd is > 4 mM (inactive).

For the molecule `O=C(O)c1ccc(CN2CCCCC2)o1`, the Kd was > 4 mM (inactive).

Regarding `Cn1c(=O)cc(N2CCCCC2)[nH]c1=O`, the Kd was > 4 mM (inactive).

As for `c1cncc(C2CCCCN2)c1` (stereo not drawn), the Kd was > 4 mM (inactive).

As for `Cc1cc(C)n(S(=O)(=O)c2ccc(C(C)(C)C)cc2)n1`, the Kd was > 4 mM (inactive).

For `CS(=O)(=O)N1CCN(c2ccccc2F)CC1`, the Kd is > 4 mM (inactive).

As for `NC(=O)c1ccc(NC(=O)C2CC2)cc1`, the Kd was > 4 mM (inactive).

With `CNc1nnc(CSc2nc(C)cc(C)n2)s1`, the Kd is > 4 mM (inactive).

In the case of `CCC1(CC)C(=O)N=C(N)NC1=O`, the Kd was > 4 mM (inactive).

Consider `S=c1[nH]ncn1-c1ccccc1`, for which the Kd is > 4 mM (inactive).

Turning to `Cc1cc(=O)[nH]c(N2CCN(Cc3ccccc3)CC2)n1`, the Kd is > 4 mM (inactive).

As for `CCC1(CC)C(=O)NC(=O)N=C1N`, the Kd was > 4 mM (inactive).

Turning to `COC(=O)c1cc(C)on1`, the Kd was > 4 mM (inactive).

Consider `NC(=O)c1ccc(Cl)c(N2C(=O)CCC2=O)c1`, for which the Kd is > 4 mM (inactive).

`c1ccc(-c2n[nH]c(-c3ccccn3)n2)nc1`: the Kd is > 4 mM (inactive).

In the case of `NS(=O)(=O)c1ccc(NC(=O)c2cccs2)cc1`, the Kd is > 4 mM (inactive).

As to `O=C(Oc1ccc(-c2nnco2)cc1)N1CCCCC1`, the Kd was > 4 mM (inactive).

Take `CNC(=O)c1cc2cccc(OC)c2oc1=O`: the Kd was > 4 mM (inactive).

For the molecule `c1cncc(Nc2nc(-c3ccncc3)cs2)c1`, the Kd was > 4 mM (inactive).

Turning to `COc1c2occc2cc2ccc(=O)oc12`, the Kd was > 4 mM (inactive).

Turning to `O=C1CNC(=O)N1Cc1ccc(F)cc1`, the Kd was > 4 mM (inactive).

Turning to `COc1cnn(-c2ccccc2)c(=O)c1N(C)C`, the Kd was > 4 mM (inactive).

As to `Cc1cc(O)c(NC(=O)c2ccco2)cc1C`, the Kd is > 4 mM (inactive).

`O=P(O)(Cc1ccccc1)c1ccccc1`: the Kd was > 4 mM (inactive).

As to `O=S1(=O)CCC(NC(=S)Nc2ccccn2)C1` (stereo not drawn), the Kd was > 4 mM (inactive).

On to `CC(=O)NC(C)C12CC3CC(CC(C(=O)O)(C3)C1)C2` (stereo not drawn), for which the Kd was > 4 mM (inactive).

As to `CCc1nnsc1C(=O)Nc1nccs1`, the Kd is > 4 mM (inactive).

Turning to `C/C=C1\[C@H]2C=C(C)C[C@]1(N)c1ccc(=O)[nH]c1C2`, the Kd is > 4 mM (inactive).

`Nc1cc(=O)[nH]c(SCC(=O)NCc2ccccc2)n1`: the Kd is > 4 mM (inactive).

As to `Cc1ccc(C)n1-c1ccc(C(=O)N2CCOCC2)cc1`, the Kd was > 4 mM (inactive).

On to `CCOc1nc(C)ccc1-c1noc(-c2ccco2)n1`, for which the Kd is > 4 mM (inactive).
